Results taken from patent US11464864B2, “Drug-bound compound and use thereof” (priority 2018, dated 2022).
Read-outs that look alike come from different tables or passages of the source.

Tests used:
HeLa cells [1] = test: Identification of cell uptake by confocal microscopy; format: cell-based; conditions: 10 µM compound, serum-free DMEM, 37° C., 30 minutes
Method: (§1) High glucose Dulbecco's modified Eagle's medium (DMEM), Roswell Park Memorial Institute (RPMI) 1640, Dulbecco's phosphate buffered saline, pH 7.4 (DPBS), fetal bovine serum (FBS), and trypsin/EDTA were obtained from Gibco™ and Thermo Fischer Scientific. Mitotracker and Lysotracker were obtained from Invitrogen Inc. (USA). 3-(4,5-Dimethyl-2-thiazolyl)-2,5-diphenyl-2H-tetrazolium bromide (MTT) was purchased from Sigma-Aldrich Korea Ltd. All solutions were prepared using Milli-Q purified water […]. HeLa cells were cultured in 10% (v/v) FBS containing DMEM and penicillin at 37° C. under a wet 5% CO2 environment. For SW480 cells and HT-29 cells, RMPI 1640 medium was used.
(§2) HeLa cells (1×10^5 cells per well) were seeded in a 35 mm cover glass bottom dish (SPL Life Sciences Co., Ltd., Korea) and incubated for 24 hours. […] After incubation at 37° C. for 30 minutes, the cells were washed three times with cold PBS to remove non-internalized samples. Live HeLa cells were examined with a confocal laser scanning microscope (Olympus Fluoview FV1000) equipped with an oil immersion lens (NA 1.30, 40×). […] Each analysis was repeated three times.

HeLa cells [2] = test system: HeLa cells
Method: as §2

HT-29 cells = test: Measurement of cytotoxicity, MTT assay; format: cell-based; conditions: Homo sapiens, 48 hours incubation, read-out: IC50 (cell viability, MTT)
Method: as §1
(§3) SW480 cells and HT-29 cells (4.5×10^3 cells per well) were seeded in a 96-well plate. After 24 hours, the medium was replaced with serum-free RMPT 1640. […] The treated cells were incubated for 48 hours, washed with cold PBS, and then exposed to MTT in the medium for 4 hours. The medium was replaced with DMSO, and the dissolved formazan dye was quantified by measuring the absorbance at 500 nm. Non-treated cells were measured in the same manner as a control.

SW480 cells = test: Measurement of cytotoxicity, MTT assay; format: cell-based; conditions: Homo sapiens, 48 hours incubation, read-out: IC50 (cell viability, MTT)
Method: as §1, §3

| Compound | Cell uptake (intracellular FITC fluorescence in live cells) (HeLa cells [1]) | Intracellular localization (HeLa cells [2]; HeLa cells, 10 μM) | Intracellular localization (HeLa cells [2]; HeLa cells, 20 μM, incubated 30 minutes) | Co-localization with Lysotracker (lysosomal marker) (HeLa cells [2]; HeLa cells, Lysotracker 200 nM) | Co-localization with Mitotracker (mitochondrial marker) (HeLa cells [2]; live HeLa cells, 10 uM for 30 minutes, then Mitotracker 100 nM for 30 minutes) | IC50 (HT-29 cells) | IC50 (SW480 cells) |
| --- | --- | --- | --- | --- | --- | --- | --- |
| 20-O-[6-(fluoresceinyl-5-thioureido)-hexanoyl)camptothecin [compound (4)] | intracellular fluorescence was not observed |  |  |  |  |  |  |
| 1-O-[20-O—(N-succinyl-6-aminohexanoyl)camptothecin]-2,3,4,5-tetra-O—(N-{bis-[3-N′,N″-bis-(tert-butoxycarbonyl)-guanidino)-propyl]}-6-aminohexanoyl)-6-O-[6-(fluoresceinyl-5-thioureido)-hexanoyl]-D-sorbitol⋅8HCl [compound (10)] | strong green fluorescence appears mainly in the cytoplasm | intracellular localization for mitochondria | fluorescence exists even inside the nucleus | co-localization was not observed | Co-localization was markedly observed |  |  |
| CC[C@@]1(O)C(=O)OCc2c1cc1n(c2=O)Cc2cc3ccccc3nc2-1 [CPT, Camptothecin] |  |  |  |  |  | 990 nM | 1530 nM |
